What is called IC50 is the concentration that inhibits the measured activity by half.

The assay deals with GABA receptor complex (GRC), [35S]-TBPS binding in rat brain cortical membranes. Put plainly: Steroid inhibition of [35S]-TBPS binding (radioligand displacement). Conditions: 2 nM [35S]-TBPS, in the presence of 5 μM GABA, read-out: 35S-TBPS Radioligand Displacement (Control IC50). The procedure:
TBPS binding assays using rat brain cortical membranes in the presence of 5 μM GABA has been described (Gee et al, J. Pharmacol. Exp. Ther. 1987, 241, 346-353; Hawkinson et al, Mol. Pharmacol. 1994, 46, 977-985).
Briefly, cortices are rapidly removed following decapitation of carbon dioxide-anesthetized Sprague-Dawley rats (200-250 g). The cortices are homogenized in 10 volumes of ice-cold 0.32 M sucrose using a glass/teflon homogenizer and centrifuged at 1500×g for 10 min at 4° C. The resultant supernatants are centrifuged at 10,000×g for 20 min at 4° C. to obtain the P2 pellets. The P2 pellets are resuspended in 200 mM NaCl/50 mM Na—K phosphate pH 7.4 buffer and centrifuged at 10,000×g for 10 min at 4 OC. This ishing procedure is repeated twice and the pellets are resuspended in 10 volumes of buffer. Aliquots (100 μL) of the membrane suspensions are incubated with 2 nM [^35S]-TBPS and 5 μL, aliquots of test drug dissolved in dimethyl sulfoxide (DMSO) (final 0.5%) in the presence of 5 μM GABA. The incubation is brought to a final volume of 1.0 mL with buffer. Nonspecific binding is determined in the presence of 2 μM unlabeled TBPS and ranged from 15 to 25%. Following a 90 min incubation at room temp, the assays are terminated by filtration through glass fiber filters (Schleicher and Schuell No. 32) using a cell harvester (Brandel) and rinsed three times with ice-cold buffer. Filter bound radioactivity is measured by liquid scintillation spectrometry. Non-linear curve fitting of the overall data for each drug averaged for each concentration is done using Prism (GraphPad). […] The concentration of test compound producing 50% inhibition (IC50) of specific binding and the maximal extent of inhibition (Imax) are determined for the individual experiments with the same model used for the overall data and then the means+SEM.s of the individual experiments are calculated.
Various compounds are or can be screened to determine their potential as modulators of [^35S]-TBPS binding in vitro. These assays are or can be performed in accordance with the above discussed procedures.
(In general: In a radioligand displacement assay an active substance lowers the binding of a labelled ligand.)
As to `C[C@]12C[C@H](OC(=O)c3ccccc3)[C@@H](O)C[C@@H]1CC[C@@H]1[C@@H]2CC[C@]2(C)[C@@H](C(=O)CO)CC[C@@H]12` [Compound 2, (2S,3S,5S,8R,9S,10S,13S,14S,17S)-3-hydroxy-17-(2-hydroxyacetyl)-10,13-dimethyl-hexadecahydro-1H-cyclopenta[a]phenanthren-2-yl benzoate], the IC50 was in the range of 100 to 500 nM. With `CC(=O)OC1CC2(C)C(=CC#N)CCC2C2CCC3CC(O)CCC3C12` (centres unmarked) [Compound 11] the figure was 100 to 500 nM.

For `CC(=O)O[C@H]1C[C@]2(C)/C(=C\C#N)CC[C@H]2[C@@H]2CC[C@H]3C[C@H](O)CC[C@]3(C)[C@H]21` [Compound 4, (3R,5S,8S,9S,10S,11S,13S,14S,Z)-17-(cyanomethylene)-3-hydroxy-10,13-dimethyl-hexadecahydro-1H-cyclopenta[a]phenanthren-11-yl acetate], the IC50 was 100 to 500 nM.

Consider `CC(=O)O[C@H]1C[C@]2(C)[C@@H](C(=O)CO)CC[C@H]2[C@@H]2CC[C@H]3C[C@H](O)CC[C@]3(C)[C@H]21` [Compound 7, (3R,5S,8S,9S,10S,11S,13S,14S,17S)-3-hydroxy-17-(2-hydroxyacetyl)-10,13-dimethyl-hexadecahydro-1H-cyclopenta[a]phenanthren-11-yl acetate], for which the IC50 lay in the range of 100 to 500 nM.

For `CO[C@H]1CC[C@H]2[C@@H]3CC[C@H]4C[C@H](O)CC[C@]4(COC(C)=O)[C@H]3CC[C@]12C` [Compound 13], the IC50 was in the range of 100 to 500 nM. With `CC(=O)OC[C@]12CC[C@@H](O)C[C@@H]1CC[C@@H]1[C@@H]2CC[C@]2(C)/C(=C\C#N)CC[C@@H]12` [Compound 5, ((3R,5S,8S,9S,10R,13S,14S,Z)-17-(cyanomethylene)-3-hydroxy-13-methyl-hexadecahydro-1H-cyclopenta[a]phenanthren-10-yl)methyl acetate] the figure was 100 to 500 nM; with `CC(=O)O[C@H]1C[C@@H]2[C@H](CC[C@]3(C)/C(=C\C#N)CC[C@@H]23)[C@@]2(C)CC[C@@H](O)C[C@H]12` [Compound 3, (3R,5S,6S,8R,9S,10R,13S,14S,Z)-17-(cyanomethylene)-3-hydroxy-10,13-dimethyl-hexadecahydro-1H-cyclopenta[a]phenanthren-6-yl acetate], 100 to 500 nM. As for `CC(=O)O[C@H]1C[C@@]2(C)[C@@H](CC[C@@H]3[C@@H]2CC[C@]2(C)[C@@H](C(=O)CO)CC[C@@H]32)C[C@@H]1O` [Compound 6], the IC50 was in the range of 100 to 500 nM. As for `CC(=O)O[C@H]1C[C@@H]2[C@H](CC[C@]3(C)[C@@H](C(=O)CO)CC[C@@H]23)[C@@]2(C)CC[C@@H](O)C[C@H]12` [Compound 9, (3R,5S,6S,8R,9S,10R,13S,14S,17S)-3-hydroxy-17-(2-hydroxyacetyl)-10,13-dimethyl-hexadecahydro-1H-cyclopenta[a]phenanthren-6-yl acetate], the IC50 was in the range of 100 to 500 nM. The result for `CC(=O)O[C@H]1C[C@@]2(C)[C@@H](CC[C@@H]3[C@@H]2CC[C@]2(C)/C(=C\C#N)CC[C@@H]32)C[C@@H]1O` [Compound 1, (2S,3S,5S,8R,9S,10S,13S,14S,Z)-17-(cyanomethylene)-3-hydroxy-10,13-dimethyl-hexadecahydro-1H-cyclopenta[a]phenanthren-2-yl acetate] reads 100 to 500 nM; that for `CC(=O)O[C@H]1C[C@@H]2[C@H](CC[C@]3(C)[C@@H](C(C)=O)CC[C@@H]23)[C@@]2(C)CC[C@@H](O)C[C@H]12` [Compound 8, (3R,5S,6S,8R,9S,10R,13S,14S,17S)-17-acetyl-3-hydroxy-10,13-dimethyl-hexadecahydro-1H-cyclopenta[a]phenanthren-6-yl acetate], 100 to 500 nM.

For the origin of these results see patent US20150175651A1, “NEUROACTIVE STEROIDS, COMPOSITIONS, AND USES THEREOF” (SAGE THERAPEUTICS, INC., priority 2012, published 2015).
